How the values were obtained:
Format in all cases: in vivo
SAGITTARIA PYGMAEA, L. = assay: Preemergence weed control under flooded paddy conditions, SAGPY (Arrowhead (Pygmaea)); conditions: preemergence weeds, rated three to four weeks after treatment
Outline: (§1)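 Visual 0-9 rating against untreated control, covering stand, vigor, malformation, size and chlorosis, scored three to four weeks post-treatment in a greenhouse. Application was into 1.5-3 cm flood water over silt loam sown at 0.5 cm. The 50/50 v/v aqueous/acetone doses were about 0.5, 0.25, 0.125 and 0.063 kg/ha.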

GALIUM APARINE = assay: Preemergence herbicidal evaluation, GALAP (Galium); conditions: four to five weeks after treatment
Excerpt: Results of herbicide evaluation are expressed on a rating scale (0-9). The scale is based upon a visual observation of plant stand, vigor, malformation, size, chlorosis and overall plant appearance as compared with a control.
The preemergence herbicidal activity of the test compounds of the present invention is exemplified by the following tests in which the seeds of a variety of monocotyledonous and dicotyledonous plants are separately mixed with potting soil and planted on top of approximately one inch of soil in separate pint cups. […] The treated cups are then placed on greenhouse benches, watered and cared for in accordance with conventional greenhouse procedures. From four to five weeks after treatment, the tests are terminated and each cup is examined and rated according to the rating system provided in Example 40.
The compounds evaluated are reported by compound number given in Example 40.

[1] = system: ORYZA SATIVA, L. TEBONNET; assay: Rice tolerance to post-transplant applications under flooded paddy conditions, ORYSAT (Rice, Tebonnet); conditions: post-transplant rice, rated three to four weeks after treatment;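 also: applied to flooded soil surface three days after transplanting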
Outline: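 Rated on a visual 0–9 scale against untreated plants 3–4 weeks after application, rice (cv. Tebonnet) tolerance was tested by applying compounds (approx. 0.5–0.063 kg/ha, acetone/water 50/50) to flooded soil three days post-transplant, water kept 1.5–3 cm deep.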

CHENOPODIUM ALBUM, L. = assay: Preemergence herbicidal evaluation, CHEAL (Lambsquarters, Common); conditions: four to five weeks after treatment
Outline: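 Seeds mixed with potting soil were planted on about one inch of soil in cups, then sprayed with aqueous acetone solution of test compound at about 0.125 to 0.50 kg per hectare. Plants grown under greenhouse conditions; visual rating on a 0-9 scale versus untreated control at 4-5 weeks.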

[2] = system: ABUTILON THEOPHRASTI, MEDIC.; assay: Postemergence herbicidal evaluation, ABUTH (Velvetleaf); conditions: rated four to five weeks after treatment, averaged
Outline: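 This postemergence herbicide test used two-week-old velvetleaf seedlings grown in jiffy flats. Each compound was sprayed at 40 psi as a dispersion in 50/50 acetone/water with 0.5% TWEEN®20 surfactant. Plants then received routine greenhouse care. After four to five weeks, injury was scored visually on a 0-9 scale against a control, and replicate tests were averaged.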

[3] = system: CYPERUS SEROTINUS, ROTTB.; assay: Preemergence weed control under flooded paddy conditions, CYPSE (Flatsedge); conditions: preemergence weeds, rated three to four weeks after treatment
Outline: as §1

CCOC(=O)Cn1c(=O)n(CC(=O)OC)c(=O)n(-c2cc(Oc3ccc(C(F)(F)F)cc3Cl)ccc2[N+](=O)[O-])c1=O [Compound 6, 1-Ethyl methyl 5-{5-[(2-chloro-α,α,α-tri-fluoro-p-tolyl)oxy]-2-nitrophenyl}dihydro-2,4,6-trioxo-s-triazine-1,3(2H,4H)-diacetate]
SAGPY herbicidal rating (SAGITTARIA PYGMAEA, L.; Rate 0.125 kg/ha): 0.0 | SAGPY herbicidal rating (SAGITTARIA PYGMAEA, L.; Rate 0.250 kg/ha): 0.0 | SAGPY herbicidal rating (SAGITTARIA PYGMAEA, L.; Rate 0.500 kg/ha): 0.0 | GALAP rating (GALIUM APARINE; Rate 0.125 kg/ha): 9.0 | GALAP rating (GALIUM APARINE; Rate 0.250 kg/ha): 9.0 | GALAP rating (GALIUM APARINE; Rate 0.500 kg/ha): 9.0 | ORYSAT herbicidal rating (rice tolerance) ([1]; Rate 0.125 kg/ha): 1.0 | ORYSAT herbicidal rating (rice tolerance) ([1]; Rate 0.250 kg/ha): 1.0 | ORYSAT herbicidal rating (rice tolerance) ([1]; Rate 0.500 kg/ha): 1.0 | CHEAL rating (CHENOPODIUM ALBUM, L.; Rate 0.125 kg/ha): 9.0 | CHEAL rating (CHENOPODIUM ALBUM, L.; Rate 0.250 kg/ha): 9.0 | CHEAL rating (CHENOPODIUM ALBUM, L.; Rate 0.500 kg/ha): 9.0 | ABUTH, herbicide rating (0-9) ([2]; Rate 0.125 kg/ha): 9.0 | ABUTH, herbicide rating (0-9) ([2]; Rate 0.250 kg/ha): 9.0 | ABUTH, herbicide rating (0-9) ([2]; Rate 0.500 kg/ha): 9.0

C#CCn1c(=O)n(CC(=O)OCC)c(=O)n(-c2cc(Oc3ccc(C(F)(F)F)cc3Cl)ccc2[N+](=O)[O-])c1=O [Compound 7, Ethyl 3-{5-[(2-chloro-α,α,α-trifluoro-p-tolyl)oxy]-2-nitrophenyl}tetrahydro-2,4,6-trioxo-5-(2-propynyl)-s-triazine-1(2H)-acetate]
CYPSE herbicidal rating ([3]; Rate 0.125 kg/ha): 0.0 | CYPSE herbicidal rating ([3]; Rate 0.250 kg/ha): 0.0 | SAGPY herbicidal rating (SAGITTARIA PYGMAEA, L.; Rate 0.125 kg/ha): 0.0 | SAGPY herbicidal rating (SAGITTARIA PYGMAEA, L.; Rate 0.250 kg/ha): 0.0 | SAGPY herbicidal rating (SAGITTARIA PYGMAEA, L.; Rate 0.500 kg/ha): 0.0 | GALAP rating (GALIUM APARINE; Rate 0.125 kg/ha): 4.0 | GALAP rating (GALIUM APARINE; Rate 0.250 kg/ha): 8.0 | GALAP rating (GALIUM APARINE; Rate 0.500 kg/ha): 9.0 | ORYSAT herbicidal rating (rice tolerance) ([1]; Rate 0.125 kg/ha): 0.0 | ORYSAT herbicidal rating (rice tolerance) ([1]; Rate 0.250 kg/ha): 0.0 | ORYSAT herbicidal rating (rice tolerance) ([1]; Rate 0.500 kg/ha): 1.0

Reference: patent publication EP0745595A1, “3-(3-Aryloxyphenyl)-1-(substituted methyl)-s-triazine-2,4,6-oxo or thiotrione herbicidal agents” (American Cyanamid Company, priority 1995, dated 1996)
